Biological target: motilin receptor (Motilin) (Homo sapiens, UniProt O43193)
Assay: GPCR array functional assay (Eu-GTP binding) on GAPS coated porous slide, Motilin receptor
Format: biochemical
Conditions: agonist at 1 μM, 10 nM Eu-GTP, 3 μM GDP, 1 hour incubation, time-resolved fluorescence
Experimental: 2) Assays performing—the printed GPCR arrays are then incubated with assay buffers containing GTP analogue probes in the presence or absence of receptor agonist for certain time (e.g., 45 minutes), and at the end of incubation period the assay solutions are removed, the slides are rinsed with GTP wash buffer and dried with nitrogen;
3) Imaging—when Eu-GTP is used as a probe, the slides are then directly scanned using a time-resolved fluorescence imaging system; and, if biotin-GTPγS is used as a probe, an extra incubation step is often performed before imaging. For example, the array is then further incubated with Gold particles labeled streptavadin in order to detect bounded biotin-GTPγS, resonance light scattering imaging system is then used.
The EuGTP assay buffer contained 10 nM Eu-GTP, 50 mM HEPES buffer, pH 7.4, 3 μM GDP, 10 mM MgCl2, 100 mM NaCl, and 0.1% protein blocker. At the end of the incubation, the assay buffers were removed. Afterwards, slides were washed, dried and imaged with in-house developed time-resolved fluorescence imaging system.

Chain of motilin receptor (Motilin) (O43193 whole entry, species assumed): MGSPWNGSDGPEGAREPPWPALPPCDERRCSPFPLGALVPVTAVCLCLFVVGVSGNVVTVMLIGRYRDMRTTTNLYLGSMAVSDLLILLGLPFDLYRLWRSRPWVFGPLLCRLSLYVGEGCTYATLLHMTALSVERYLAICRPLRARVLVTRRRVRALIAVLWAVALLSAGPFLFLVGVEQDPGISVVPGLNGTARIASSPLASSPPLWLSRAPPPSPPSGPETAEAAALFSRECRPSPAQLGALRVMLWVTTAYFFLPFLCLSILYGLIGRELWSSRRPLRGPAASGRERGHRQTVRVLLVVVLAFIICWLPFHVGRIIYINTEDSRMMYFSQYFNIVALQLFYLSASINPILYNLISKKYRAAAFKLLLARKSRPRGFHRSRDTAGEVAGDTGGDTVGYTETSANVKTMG

binding of EuGTP to the GPCR microspots (receptor activation by agonist): increase the binding of EuGTP
SMILES: CC[C@H](C)[C@H](NC(=O)[C@@H]1CCCN1C(=O)[C@@H](NC(=O)[C@@H](N)Cc1ccccc1)C(C)C)C(=O)N[C@@H](Cc1ccccc1)C(=O)N[C@H](C(=O)N[C@@H](Cc1ccc(O)cc1)C(=O)NCC(=O)N[C@@H](CCC(=O)O)C(=O)N[C@@H](CC(C)C)C(=O)N[C@@H](CCC(N)=O)C(=O)N[C@@H](CCCNC(=N)N)C(=O)N[C@@H](CCSC)C(=O)N[C@@H](CCC(N)=O)C(=O)N[C@@H](CCC(=O)O)C(=O)N[C@@H](CCCCN)C(=O)N[C@@H](CCC(=O)O)C(=O)N[C@@H](CCCNC(=N)N)C(=O)N[C@@H](CC(N)=O)C(=O)N[C@@H](CCCCN)C(=O)NCC(=O)N[C@@H](CCC(N)=O)C(=O)O)[C@@H](C)O [motilin]
